Test [1] has as its target c-Raf-1 (Homo sapiens, UniProt P04049). In words: c-Raf-1 kinase activity assay (AlphaScreen, biotin-MEK1 substrate). Particulars: 100 μM ATP, 100 nM biotin-MEK1, 45 minutes at room temperature; read-out: Biochemical activity (IC50 μM) c-Raf-1. The procedure, abridged:
(§1)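 Each Raf enzyme (0.1 ng) phosphorylates 100 nM biotin-MEK1 in pH 7.0 HEPES with Mg2+/Mn2+, 100 μM ATP final, 45 min at room temperature. Phospho-MEK1/2 antibody with AlphaScreen beads is read after 3 h. IC50 comes from an 8-point dilution series.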

Test [2] addresses CYP3A4(BFC) (Homo sapiens, UniProt P08684). Nature of the test: CYP3A4 inhibition (substrate BFC). Format: in vitro ADME. Particulars: read-out: Cyp IC50 (μM) 3A4(BFC). The method, then:
(§2) CYP (Cytochrome P450) enzymes are the major drug metabolizing enzymes present in the liver. The inhibition of CYP enzyme activity (IC50) for each of CYP1A2, CYP2C19, CYP2C9, CYP2D6, CYP3A4(BFC) and CYP3A4(BQ) is determined for compounds, where inhibition of metabolism of a known substrate leads to a decrease in the fluorescence of the metabolized product. The fluorescence of the product is monitored as a function of compound concentration. Compounds are dissolved in dimethyl sulfoxide to a concentration of 100 mM. These are diluted […], into 82 μL of acetonitrile. An 11 μL aliquot of this solution is then added to 204 μL of cofactor mix (1.3% NADPH Regeneration system Solution A, 1.04% NADPH Regeneration system Solution B from BD Biosciences, 5% acetonitrile and 0.05% dimethyl sulfoxide). These are then serially diluted 1:1 (160 μL to 160 μL co-factor mix) for a total of 10 points. A 10 μL aliquot of this final mixture is dispensed into 384 well assay plates and incubated for 10 minutes at 37° C. Enzyme and substrate mix (10 μL; 0.5 pmol CYP1A2/5 μM CEC; 1.0 pmol CYP2C9/75 μM MFC; 0.5 pmol CYP2C19/25 μM CEC; 1.5 pmol CYP2D6/1.5 μM AMMC; 1.0 pmol CYP3A4/50 μM BFC; or 1.0 pmol CYP3A4/40 μM BQ) is added to these assay plates. Assay plates are incubated at 37° C. (CYP1A2-15 min; CYP2C9-45 min; CYP2C19, 2D6 and 3A4-30 min) and read in a Tecan Safire 2 plate reader (CYP1A2, 2C19 and 3A4 409 ex/460 em; CYP2C9 and 2D6 409 ex/530 em). The signal versus compound concentration is used to determine the IC50. The enzymes and substrates for this assay are obtained from BD Biosciences.

For test [3], the target named is B-Raf V600E (Homo sapiens, UniProt P15056, V600E). Nature of the test: B-Raf V600E kinase activity assay (AlphaScreen, biotin-MEK1 substrate). To be noted: 100 μM ATP, 100 nM biotin-MEK1, 45 minutes at room temperature, read-out: Biochemical activity (IC50 μM) V600E. The procedure, abridged: as §1
(Alpha assays give light when donor and acceptor beads are brought close together.)

For test [4], the target named is CYP2D6 (Homo sapiens, UniProt P10635). In words: CYP2D6 inhibition (fluorescent substrate AMMC). To be noted: read-out: Cyp IC50 (μM) 2D6. The test is classed as in vitro ADME. The method, then: as §2
The target of test [5] is CYP2C19 (Homo sapiens, UniProt P33261). Nature of the test: CYP2C19 inhibition (fluorescent substrate CEC). Particulars: read-out: Cyp IC50 (μM) 2C19. The test is classed as in vitro ADME. The method, then: as §2
The target in test [6] is T1, CYP1A2 (Homo sapiens, UniProt P05177).
T1 sequence (P05177 1-516): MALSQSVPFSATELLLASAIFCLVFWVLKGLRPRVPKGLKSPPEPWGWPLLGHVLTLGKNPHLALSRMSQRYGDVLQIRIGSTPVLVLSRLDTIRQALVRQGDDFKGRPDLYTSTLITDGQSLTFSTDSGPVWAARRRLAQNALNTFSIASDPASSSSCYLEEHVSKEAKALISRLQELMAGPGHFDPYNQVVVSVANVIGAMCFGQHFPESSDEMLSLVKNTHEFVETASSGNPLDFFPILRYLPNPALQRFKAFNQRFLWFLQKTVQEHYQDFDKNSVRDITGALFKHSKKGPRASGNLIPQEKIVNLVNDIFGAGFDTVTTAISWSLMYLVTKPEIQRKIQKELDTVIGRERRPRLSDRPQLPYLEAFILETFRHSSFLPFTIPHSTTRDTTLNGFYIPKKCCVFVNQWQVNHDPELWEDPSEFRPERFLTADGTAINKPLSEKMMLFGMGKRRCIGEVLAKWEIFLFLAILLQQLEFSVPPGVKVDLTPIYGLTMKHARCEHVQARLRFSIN
In words: CYP1A2 inhibition (fluorescent substrate CEC). Format: in vitro ADME. To be noted: read-out: Cyp IC50 (μM) 1A2. The method, then: as §2

The target in test [7] is B-Raf (Homo sapiens, UniProt P15056). Nature of the test: B-Raf kinase activity assay (AlphaScreen, biotin-MEK1 substrate). To be noted: 100 μM ATP, 100 nM biotin-MEK1, 45 minutes at room temperature; read-out: Biochemical activity (IC50 μM) B-Raf. The procedure, abridged:
as §1

One may read the IC50 as the midpoint of a concentration-inhibition curve.

SMILES strings stand for the structures. Some results are limits rather than exact numbers.

CYP2D6, sequence (P10635 whole entry): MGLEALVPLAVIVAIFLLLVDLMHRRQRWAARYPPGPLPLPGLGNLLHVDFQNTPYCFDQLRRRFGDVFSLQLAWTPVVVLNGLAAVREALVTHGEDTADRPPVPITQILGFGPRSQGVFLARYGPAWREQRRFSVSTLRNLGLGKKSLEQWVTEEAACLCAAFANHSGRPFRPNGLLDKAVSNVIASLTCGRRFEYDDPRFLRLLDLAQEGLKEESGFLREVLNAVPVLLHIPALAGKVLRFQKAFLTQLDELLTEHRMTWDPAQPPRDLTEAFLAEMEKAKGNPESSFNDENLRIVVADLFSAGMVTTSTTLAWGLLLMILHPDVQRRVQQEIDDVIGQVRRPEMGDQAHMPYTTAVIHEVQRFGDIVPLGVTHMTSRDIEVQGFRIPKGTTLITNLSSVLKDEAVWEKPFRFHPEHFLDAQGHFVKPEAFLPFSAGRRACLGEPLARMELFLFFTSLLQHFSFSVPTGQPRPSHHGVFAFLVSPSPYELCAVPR
CYP2C19, sequence (P33261 whole entry): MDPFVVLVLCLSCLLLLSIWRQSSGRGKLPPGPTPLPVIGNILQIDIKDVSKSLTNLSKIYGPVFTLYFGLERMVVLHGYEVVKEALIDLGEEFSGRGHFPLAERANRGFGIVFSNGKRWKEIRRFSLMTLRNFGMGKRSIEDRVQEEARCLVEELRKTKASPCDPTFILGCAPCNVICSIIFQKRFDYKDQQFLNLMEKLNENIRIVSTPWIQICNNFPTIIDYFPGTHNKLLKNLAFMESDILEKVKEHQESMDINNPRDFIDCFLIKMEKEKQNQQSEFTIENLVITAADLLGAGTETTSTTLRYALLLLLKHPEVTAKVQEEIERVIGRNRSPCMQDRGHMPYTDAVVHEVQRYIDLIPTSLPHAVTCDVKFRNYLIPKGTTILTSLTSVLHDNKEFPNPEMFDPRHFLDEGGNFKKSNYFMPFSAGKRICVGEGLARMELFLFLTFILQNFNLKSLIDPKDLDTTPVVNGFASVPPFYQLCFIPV
B-Raf, sequence (P15056 whole entry): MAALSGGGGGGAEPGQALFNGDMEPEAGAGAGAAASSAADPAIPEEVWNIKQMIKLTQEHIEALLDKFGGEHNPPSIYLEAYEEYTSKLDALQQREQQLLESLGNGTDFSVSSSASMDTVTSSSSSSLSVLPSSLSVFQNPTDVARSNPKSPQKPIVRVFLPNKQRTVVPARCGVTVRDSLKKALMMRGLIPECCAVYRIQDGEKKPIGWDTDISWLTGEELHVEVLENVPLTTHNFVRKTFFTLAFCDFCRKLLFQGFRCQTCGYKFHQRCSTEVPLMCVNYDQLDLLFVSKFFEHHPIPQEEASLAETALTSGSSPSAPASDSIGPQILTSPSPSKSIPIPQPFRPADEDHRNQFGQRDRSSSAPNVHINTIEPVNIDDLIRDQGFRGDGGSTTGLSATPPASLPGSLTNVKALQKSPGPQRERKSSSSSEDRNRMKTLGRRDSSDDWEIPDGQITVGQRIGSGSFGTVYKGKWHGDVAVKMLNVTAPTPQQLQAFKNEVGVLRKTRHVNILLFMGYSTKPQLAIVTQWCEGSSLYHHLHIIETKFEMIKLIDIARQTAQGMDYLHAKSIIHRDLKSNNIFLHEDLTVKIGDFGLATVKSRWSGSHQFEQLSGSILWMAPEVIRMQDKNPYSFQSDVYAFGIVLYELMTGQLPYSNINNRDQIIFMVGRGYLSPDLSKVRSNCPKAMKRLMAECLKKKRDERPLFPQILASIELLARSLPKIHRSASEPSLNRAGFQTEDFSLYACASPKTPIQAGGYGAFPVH
c-Raf-1, sequence (P04049 whole entry Y340D/Y341D, form open): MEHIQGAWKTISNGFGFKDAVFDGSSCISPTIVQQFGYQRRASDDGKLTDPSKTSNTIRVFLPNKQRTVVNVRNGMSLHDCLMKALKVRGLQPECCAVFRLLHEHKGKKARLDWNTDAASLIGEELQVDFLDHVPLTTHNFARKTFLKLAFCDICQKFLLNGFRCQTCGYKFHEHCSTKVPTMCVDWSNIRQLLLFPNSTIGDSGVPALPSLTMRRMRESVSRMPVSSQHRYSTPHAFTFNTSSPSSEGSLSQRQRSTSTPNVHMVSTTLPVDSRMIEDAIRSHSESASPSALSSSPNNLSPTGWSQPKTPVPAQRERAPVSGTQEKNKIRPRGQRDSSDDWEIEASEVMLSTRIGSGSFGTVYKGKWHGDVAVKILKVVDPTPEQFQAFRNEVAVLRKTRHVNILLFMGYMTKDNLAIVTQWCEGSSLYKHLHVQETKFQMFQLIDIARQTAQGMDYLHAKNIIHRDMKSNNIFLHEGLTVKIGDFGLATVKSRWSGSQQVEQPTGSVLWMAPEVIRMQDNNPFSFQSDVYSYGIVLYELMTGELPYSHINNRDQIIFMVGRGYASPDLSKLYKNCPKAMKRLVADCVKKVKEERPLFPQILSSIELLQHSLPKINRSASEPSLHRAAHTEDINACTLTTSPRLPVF
B-Raf V600E, sequence (P15056 whole entry V600E): as the sequence (P15056 whole entry) above, with V600E counted along it
CYP3A4(BFC), sequence (P08684 whole entry): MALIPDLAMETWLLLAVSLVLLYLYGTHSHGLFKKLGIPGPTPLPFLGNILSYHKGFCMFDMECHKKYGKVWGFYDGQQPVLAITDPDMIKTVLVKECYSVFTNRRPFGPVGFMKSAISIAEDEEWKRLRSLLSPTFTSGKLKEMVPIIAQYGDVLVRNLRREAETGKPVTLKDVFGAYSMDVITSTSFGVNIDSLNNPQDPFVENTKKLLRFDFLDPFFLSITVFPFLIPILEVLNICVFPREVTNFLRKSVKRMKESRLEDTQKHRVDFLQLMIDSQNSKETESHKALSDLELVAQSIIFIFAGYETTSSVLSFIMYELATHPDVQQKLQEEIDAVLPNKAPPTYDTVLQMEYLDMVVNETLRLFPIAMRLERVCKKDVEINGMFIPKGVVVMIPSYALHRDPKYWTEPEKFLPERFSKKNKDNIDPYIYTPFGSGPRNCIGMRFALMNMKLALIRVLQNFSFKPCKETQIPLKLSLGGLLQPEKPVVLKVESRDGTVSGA

Take `CCCS(=O)(=O)Nc1ccc(F)c(C(=O)c2c[nH]c3ncc(-c4ccc5[nH]ncc5c4)cc23)c1F` [P-0001, propane-1-sulfonic acid {2,4-difluoro-3-[5-(1H-indazol-5-yl)-1H-pyrrolo[2,3-b]pyridine-3-carbonyl]-phenyl}-amide]: the IC50 was less than 0.1 µM in test [1]; greater than 10 µM in test [2]; less than 0.1 µM in test [3]; greater than 10 µM in test [4]; less than 5 µM in test [5]; greater than 10 µM in test [6]. For the same compound, the IC50 in test [7] is less than 0.1 µM.
In the case of `O=C(c1c(F)ccc(NS(=O)(=O)c2cc(F)ccc2F)c1F)c1c[nH]c2ncc(-c3ccc4[nH]ncc4c3)cc12` [P-0002, N-{2,4-Difluoro-3-[5-(1H-indazol-5-yl)-1H-pyrrolo[2,3-b]pyridine-3-carbonyl]-phenyl}-2,5-difluoro-benzenesulfonamide], the IC50 is less than 0.1 µM in test [1]; less than 0.1 µM in test [3]; greater than 10 µM in test [4]; 5 to 10 µM in test [5]; greater than 10 µM in test [6]; less than 0.1 µM in test [7].
`CNC(=O)n1ncc2cc(-c3cnc4[nH]cc(C(=O)c5c(F)ccc(NS(=O)(=O)c6cc(F)ccc6F)c5F)c4c3)ccc21` [P-0003, 5-{3-[3-(2,5-Difluoro-benzenesulfonylamino)-2,6-difluoro-benzoyl]-1H-pyrrolo[2,3-b]pyridin-5-yl}-indazole-1-carboxylic acid methylamide]: the half-inhibitory concentration (IC50) in test [1] was less than 0.1 µM; in test [2] it was greater than 10 µM; in test [3], less than 0.1 µM; in test [4] it was greater than 10 µM; in test [5], less than 5 µM; in test [6] it was greater than 10 µM. In test [7], the IC50 was less than 0.1 µM.
Regarding `CC(=O)n1cc(C(=O)c2c(F)ccc(NS(=O)(=O)c3cc(F)ccc3F)c2F)c2cc(-c3ccc4c(cnn4C(C)=O)c3)cnc21` [P-0004, N-{3-[1-Acetyl-5-(1-acetyl-1H-indazol-5-yl)-1H-pyrrolo[2,3-b]pyridine-3-carbonyl]-2,4-difluoro-phenyl}-2,5-difluoro-benzenesulfonamide], the IC50 in test [1] was less than 0.1 µM; in test [2] it was greater than 10 µM; in test [3], less than 0.1 µM; in test [4], greater than 10 µM; in test [5], less than 5 µM; in test [6], greater than 10 µM. Also, the concentration for half-maximal inhibition (IC50) in test [7] was less than 0.1 µM.
As for `CC(=O)n1ncc2cc(-c3cnc4[nH]cc(C(=O)c5c(F)ccc(NS(=O)(=O)c6cc(F)ccc6F)c5F)c4c3)ccc21` [P-0005, N-{3-[5-(1-Acetyl-1H-indazol-5-yl)-1H-pyrrolo[2,3-b]pyridine-3-carbonyl]-2,4-difluoro-phenyl}-2,5-difluoro-benzenesulfonamide], the half-inhibitory concentration (IC50) in test [1] was less than 0.1 µM; in test [2] it was greater than 10 µM; in test [3] it was less than 0.1 µM; in test [4], greater than 10 µM; in test [5], less than 5 µM; in test [6], greater than 10 µM. For the same compound, in test [7], the IC50 is less than 0.1 µM.
Turning to `CC(=O)N(c1ccc(F)c(C(=O)c2cn(C(C)=O)c3ncc(-c4ccc5c(cnn5C(C)=O)c4)cc23)c1F)S(=O)(=O)c1cc(F)ccc1F` [P-0006, N-Acetyl-N-{3-[1-acetyl-5-(1-acetyl-1H-indazol-5-yl)-1H-pyrrolo[2,3-b]pyridine-3-carbonyl]-2,4-difluoro-phenyl}-2,5-difluoro-benzenesulfonamide], the IC50 is less than 0.1 µM in test [1]; greater than 10 µM in test [2]; less than 0.1 µM in test [3]; greater than 10 µM in test [4]; 5 to 10 µM in test [5]; 5 to 10 µM in test [6]. Also, the IC50 in test [7] was less than 0.1 µM.
On to `CCCS(=O)(=O)Nc1ccc(F)c(C(=O)c2c[nH]c3ncc(-c4ccc5c(cnn5C(C)=O)c4)cc23)c1F` [P-0007, propane-1-sulfonic acid {3-[5-(1-acetyl-1H-indazol-5-yl)-1H-pyrrolo[2,3-b]pyridine-3-carbonyl]-2,4-difluoro-phenyl}-amide], for which the half-inhibitory concentration (IC50) in test [1] is roughly 0.1 µM; in test [2] it was greater than 10 µM; in test [3] it was less than 0.1 µM; in test [4], greater than 10 µM; in test [5] it was less than 5 µM; in test [6] it was less than 5 µM. Also, the IC50 in test [7] was less than 0.1 µM.
On to `CCCS(=O)(=O)Nc1ccc(F)c(C(=O)c2c[nH]c3ncc(-c4ccc5nn(C)cc5c4)cc23)c1F` [P-0010, Propane-1-sulfonic acid {2,4-difluoro-3-[5-(2-methyl-2H-indazol-5-yl)-1H-pyrrolo[2,3-b]pyridine-3-carbonyl]-phenyl}-amide], for which the concentration for half-maximal inhibition (IC50) was less than 0.1 µM in test [1]; greater than 10 µM in test [2]; less than 0.1 µM in test [3]; greater than 10 µM in test [4]; greater than 10 µM in test [5]; greater than 10 µM in test [6]. Besides, the IC50 in test [7] was less than 0.1 µM.
For `CCCS(=O)(=O)Nc1ccc(F)c(C(=O)c2c[nH]c3ncc(-c4ccc5cn(C)nc5c4)cc23)c1F` [P-0011, Propane-1-sulfonic acid {2,4-difluoro-3-[5-(2-methyl-2H-indazol-6-yl)-1H-pyrrolo[2,3-b]pyridine-3-carbonyl]-phenyl}-amide], the 50% inhibitory concentration (IC50) is less than 0.1 µM in test [1]; greater than 10 µM in test [2]; less than 0.1 µM in test [3]; greater than 10 µM in test [4]; greater than 10 µM in test [5]; less than 5 µM in test [6]. In test [7], the half-maximal inhibitory concentration (IC50) was less than 0.1 µM.
For the compound `CCCS(=O)(=O)Nc1ccc(F)c(C(=O)c2c[nH]c3ncc(-c4ccc5[nH]ccc5c4)cc23)c1F` [P-0012, Propane-1-sulfonic acid {2,4-difluoro-3-[5-(1H-indol-5-yl)-1H-pyrrolo[2,3-b]pyridine-3-carbonyl]-phenyl}-amide], the IC50 is less than 0.1 µM in test [1]; 5 to 10 µM in test [2]; less than 0.1 µM in test [3]; greater than 10 µM in test [4]; less than 5 µM in test [5]; greater than 10 µM in test [6]. The half-maximal inhibitory concentration (IC50) in test [7] was less than 0.1 µM.
With `CCCS(=O)(=O)Nc1ccc(F)c(C(=O)c2c[nH]c3ncc(-c4cccc5nn(C)cc45)cc23)c1F` [P-0015, Propane-1-sulfonic acid {2,4-difluoro-3-[5-(2-methyl-2H-indazol-4-yl)-1H-pyrrolo[2,3-b]pyridine-3-carbonyl]-phenyl}-amide], the IC50 in test [1] was less than 0.1 µM; in test [2], greater than 10 µM; in test [3], less than 0.1 µM; in test [4], greater than 10 µM; in test [5], greater than 10 µM; in test [6], greater than 10 µM. The IC50 in test [7] is less than 0.1 µM.
With `CCCS(=O)(=O)Nc1ccc(F)c(C(=O)c2c[nH]c3ncc(-c4ccc5c(cnn5S(C)(=O)=O)c4)cc23)c1F` [P-0016, propane-1-sulfonic acid {2,4-difluoro-3-[5-(1-methanesulfonyl-1H-indazol-5-yl)-1H-pyrrolo[2,3-b]pyridine-3-carbonyl]-phenyl}-amide], the IC50 in test [1] is less than 0.1 µM; in test [2], greater than 10 µM; in test [3], less than 0.1 µM; in test [4], greater than 10 µM; in test [5], greater than 10 µM; in test [6] it was greater than 10 µM. For the same compound, in test [7], the IC50 was less than 0.1 µM.
